Experimental findings from patent US20140094366A1, “SYNERGISTIC WEED CONTROL FROM APPLICATIONS OF AMINOCYCLOPYRACHLOR AND FLUROXYPYR” (Dow AgroSciences LLC, priority 2012, published 2014) are described below.

What all share (test): Field trial, post-emergence foliar weed control
What all share (type): in vivo

In assay [1] the test system is buckhorn plantain (Plantago lanceolata, PLALA). The settings on record: 27 DAYS, 18 g ae/ha, alone. From the text:
(§1) The (a) aminocyclopyrachloror an agriculturally acceptable salt or ester thereof is mixed with or applied in combination with (b) fluoroxypyr or an agriculturally acceptable salt or ester thereof in an amount sufficient to induce a synergistic herbicidal effect. […] As described in the Herbicide Handbook of the Weed Science Society of America, Ninth Edition, 2007, p. 429, “‘synergism’ [is] an interaction of two or more factors such that the effect when combined is greater than the predicted effect based on the response to each factor applied separately.” Synergistic in the herbicide context can mean that the use of (a) and (b) as defined above results in an increased weed control effect compared to the weed control effects that are possible with the use of (a) or (b) alone. In some embodiments, the damage or injury to the undesired vegetation caused by the compositions and methods disclosed herein is evaluated using a scale from 0% to 100%, when compared with the untreated control vegetation, wherein 0% indicates no damage to the undesired vegetation and 100% indicates complete destruction of the undesired vegetation. […] 22 (1967)
(§2) Field trials were conducted with applications made to established grassland with naturally occurring weed populations, or applications were made to bare ground with naturally occurring weed populations. The target plants were treated with postemergence foliar applications after they had reached at least 3-4 leaves or at least 2-5 inches in height. All treatments were applied using a randomized complete block trial design, with 3-4 replications per treatment.
(§3) Treatments consisted of aminocyclopyrachlor in acid form and fluoroxypyr-meptyl, each in water and applied alone or in combination. Spray solutions were prepared using an appropriate amount of dilution to form a 2 liter (L) aqueous spray solution with active ingredients in single and two way combinations. Formulated compounds were applied to the plant material with a backpack sprayer equipped with 8003 or Turbojet nozzles calibrated to deliver 187 liters per hectare (L/ha) to 400 L/ha at a spray height of 18-20 inches (43-50 centimeters (cm)) above average plant canopy or ground.
(§4) The treated plants were shepherd's purse (Capsella bursa-pastoris, CAPBP), common fiddleneck (Amsinckia menziesii, AMSIN), wild oat (Avena fatua, AVEFA), cat's ear dandelion (Hypochaeris radicata, HRYRA), yellow star thistle (Centaurea solstitialis, CENSO), common guava (Psidium guajava, PSIGU), buckhorn plantain (Plantago lanceolata, PLALA), and calvary clover (Medicago arabica, MEDAB). The treated plots and control plots were rated blind at various intervals after application. Ratings were based on a scale of 0-100%, as discussed above, wherein 0% indicates no damage to the undesired vegetation and 100% indicates complete destruction of the undesired vegetation.
(§5) Colby's equation was used to determine the herbicidal effects expected from the mixtures, as described above. The results were measured at 11 days, 17 days, 24 days, 27 days, 37 days, 70 days, 76 days, and 88 days after the first application of the compositions. […] The herbicide tank mix combinations tested, application rates and ratios employed, plant species tested, and results are given below.

The subject of assay [2] is calvary clover (Medicago arabica, MEDAB). The settings on record: 27 DAYS, alone.
Excerpt: as §1, §2, §3, §4, §5

Assay [3] concerns cat's ear dandelion (Hypochaeris radicata, HRYRA). The settings on record: alone.
Excerpt: as §1, §2, §3, §4, §5

Assay [4] deals with common fiddleneck (Amsinckia menziesii, AMSIN). The settings on record: alone; for Aminocyclopyrachlor Mean % weed control: 18 g ae/ha; for Fluroxypyr-meptyl Mean % weed control: 70 g ae/ha.
Excerpt: as §1, §2, §3, §4, §5

Assay [5] has as its system common guava (Psidium guajava, PSIGU). The settings on record: alone.
Excerpt: as §1, §2, §3, §4, §5

The test system of assay [6] is shepherd's purse (Capsella bursa-pastoris, CAPBP). The following applies: alone.
Excerpt: as §1, §2, §3, §4, §5

Assay [7] relates to wild oat (Avena fatua, AVEFA). The settings on record: 11 DAYS, alone.
Excerpt: as §1, §2, §3, §4, §5

Assay [8] relates to yellow star thistle (Centaurea solstitialis, CENSO). The following applies: 37 DAYS, alone.
Excerpt: as §1, §2, §3, §4, §5

For `Nc1nc(C2CC2)nc(C(=O)O)c1Cl` [Aminocyclopyrachlor, 6-amino-5-chloro-2-cyclopropylpyrimidine-4-carboxylic acid], the “Aminocyclopyrachlor Mean % weed control” value in assay [1] worked out at 22.5%; in assay [2] (18 g ae/ha), 27.5%; in assay [2] (35 g ae/ha), 47.5%; in assay [3] (11 DAYS, 35 g ae/ha), 1.75%; in assay [3] (37 DAYS, 18 g ae/ha), 28.75%; in assay [3] (70 DAYS, 18 g ae/ha), 36.25%. Besides, the “Aminocyclopyrachlor Mean % weed control” value was found to be 0% in assay [4] (17 DAYS); 0% in assay [4] (24 DAYS); 7.5% in assay [5] (76 DAYS, 50 g ae/ha); 48.3% in assay [5] (76 DAYS, 150 g ae/ha); 7.5% in assay [5] (88 DAYS, 50 g ae/ha); 57.5% in assay [5] (88 DAYS, 150 g ae/ha). Further, the “Aminocyclopyrachlor Mean % weed control” value in assay [6] (17 DAYS, 18 g ae/ha) is 23.33%; in assay [6] (17 DAYS, 35 g ae/ha) it was 50%; in assay [6] (24 DAYS, 35 g ae/ha) it was 50%; in assay [7] (35 g ae/ha), 0%; in assay [8] (18 g ae/ha) it was 57.5%.

Take `CCCCCCC(C)OC(=O)COc1nc(F)c(Cl)c(N)c1Cl` (stereo not drawn) [Fluroxypyr-meptyl]: the “Fluroxypyr-meptyl Mean % weed control” value in assay [1] is reported as 10%; in assay [2] (18 g ae/ha), 11.25%; in assay [2] (35 g ae/ha), 7.5%; in assay [2] (70 g ae/ha) it was 47.5%; in assay [3] (11 DAYS, 70 g ae/ha), 0%; in assay [3] (37 DAYS, 18 g ae/ha) it was 0.5%. Moreover, the “Fluroxypyr-meptyl Mean % weed control” value in assay [3] (37 DAYS, 70 g ae/ha) is on record as 3%; in assay [3] (70 DAYS, 70 g ae/ha) it was 1.75%; in assay [4] (17 DAYS), 3.33%; in assay [4] (24 DAYS), 3.33%; in assay [5] (76 DAYS, 80 g ae/ha), 4.8%; in assay [5] (76 DAYS, 240 g ae/ha), 16.3%. Further, the “Fluroxypyr-meptyl Mean % weed control” value worked out at 4.8% in assay [5] (88 DAYS, 80 g ae/ha); 16.3% in assay [5] (88 DAYS, 240 g ae/ha); 6.67% in assay [6] (17 DAYS, 35 g ae/ha); 13.33% in assay [6] (17 DAYS, 70 g ae/ha); 8.33% in assay [6] (24 DAYS, 70 g ae/ha); 1% in assay [7] (70 g ae/ha). Besides, the “Fluroxypyr-meptyl Mean % weed control” value in assay [8] (70 g ae/ha) turned out to be 22.5%.
